Laboratory results published in ChEMBL document CHEMBL1122700, “Structure-activity, theoretical, and X-ray studies on the intramolecular interactions in a series of novel histamine H2 receptor antagonists” (1984).

How the values were obtained:
Canis familiaris = experiment: Inhibition of histamine-stimulated gastric acid secretion in dog after intravenous administration; assay type: functional; conditions: Canis lupus familiaris, Stomach
[1] = biological target: Histamine H2 receptor (Cavia porcellus) (UniProt P47747); experiment: Histamine H2 receptor affinity was assessed in vitro by antagonism of dimaprit-stimulated chronotropic response in guinea pig right atrium at 0.1 ug/mL; assay type: functional, tissue-based; conditions: Cardiac atrium
Histamine H2 receptor (Cavia porcellus), sequence (P47747 whole entry): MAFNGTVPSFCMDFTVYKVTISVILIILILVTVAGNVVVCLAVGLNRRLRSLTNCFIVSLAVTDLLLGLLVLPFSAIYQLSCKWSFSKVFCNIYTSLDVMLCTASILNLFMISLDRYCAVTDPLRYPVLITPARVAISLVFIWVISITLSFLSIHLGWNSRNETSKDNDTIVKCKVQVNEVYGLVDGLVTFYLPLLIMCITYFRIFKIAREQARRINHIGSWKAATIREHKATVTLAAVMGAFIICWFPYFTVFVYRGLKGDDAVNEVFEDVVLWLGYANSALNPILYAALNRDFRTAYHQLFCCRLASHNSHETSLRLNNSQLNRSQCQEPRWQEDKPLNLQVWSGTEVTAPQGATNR

[2] = biological target: Histamine H2 receptor (Cavia porcellus) (UniProt P47747); experiment: Binding constant towards histamine H2 receptor

| Relative potency [1] | -Log KB [2] | SMILES | ED50 (Canis familiaris) [mg/kg] |
| --- | --- | --- | --- |
| 0.51 |  | CN(C)Cc1cccc(CSCCNc2n[s+]([O-])nc2N)c1 (stereo not drawn) | 0.013 |
|  |  | CN(C)Cc1ccc(CSCCNc2n[s+]([O-])nc2N)s1 (stereo not drawn) | 0.008 |
| 0.84 |  | CN(C)Cc1cccc(CSCCNc2n[s+]([O-])nc2N)n1 (stereo not drawn) | 0.17 |
| 0.31 | 6.85 | CN(C)Cc1ccc(CSCCNc2n[s+]([O-])nc2N)[nH]1 (stereo not drawn) | 0.17 |
